Values after ≈ are worked out from the molar mass of the structure shown.
How the values were obtained:
GSK 3α = GSK 3α (Homo sapiens (Human), UniProt P49840); assay: GSK 3α enzyme inhibition (Method 2), Z-LYTE FRET; assay type: biochemical; conditions: read-out: IC50 Values for Enzyme Inhibition GSK3α
Protocol: The enzyme inhibitory activities of compounds disclosed herein are determined by FRET using synthetic peptides labelled with both donor and acceptor fluorophores (Z-LYTE, Invitrogen Ltd., Paisley, UK).
The following two assay variants can be used for determination of GSK 3α inhibition.
The inhibitory activities of compounds of the invention against the GSK 3α enzyme isoform (Invitrogen), are evaluated by determining the level of activation/phosphorylation of the target peptide. The GSK3-α protein (500 ng/mL, 2.5 μL) is mixed with the test compound (2.5 μL at either 4 μg/mL, 0.4 μg/mL, 0.04 μg/mL, or 0.004 μg/mL) for 2 hr at RT. The FRET peptide (8 μM, 2.5 μL), which is a phosphorylation target for GSK3α, and ATP (40 μM, 2.5 μL) are then added to the enzyme/compound mixture and the resulting mixture incubated for 1 hr. Development reagent (protease, 5 μL) is added for 1 hr prior to detection in a fluorescence microplate reader (Varioskan® Flash, ThermoFisher Scientific).
In all cases, the site-specific protease cleaves non-phosphorylated peptide only and eliminates the FRET signal. Phosphorylation levels of each reaction are calculated using the ratio of coumarin emission (donor) over fluorescein emission (acceptor), for which high ratios indicate high phosphorylation and low ratios indicate low phosphorylation levels.
This method follows the same steps as Method 1 above, but utilises a shorter period of mixing of the test compound (105 minutes instead of 2 hours) with the GSK3-α protein. In addition, the concentrations of test compound employed are either 10 μg/mL, 1 μg/mL, 0.1 μg/mL, or 0.01 μg/mL

Jurkat cells = assay: Cell cytotoxicity assay (r); assay type: cell-based, human; conditions: 24 hours
In short: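 Jurkat cells (1×10^5/well, RPMI + 10% FBS) exposed to compound at 20, 5 or 1 μg/mL final (1.0% DMSO control) for 24 h at 37° C., 5% CO2. Then stained with 7.5 μg/mL propidium iodide for 15 min. % viability = PI-negative cells by flow cytometry, normalized to DMSO.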

[1] = Solubility in fasted-state simulated colonic fluid (FaSSCoF) at pH 6.5; assay type: physicochemical; conditions: 25 °C, pH 6.5, fassgf or other biorelevant, thermodynamic from solid
In short: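 Compounds were suspended at up to 2-10 mg/mL in pH 6.5 Tris/maleate FaSSCoF containing a five-bile-acid mixture, phosphatidylcholine, palmitic acid and BSA. After 24 h equilibration at 25° C the suspension was filtered and the filtrate quantified by HPLC peak area against a standard.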

[2] = pH 6.5 FaSSCoF Solubility (mg/mL) Run 1
[3] = pH 6.5 FaSSCoF Solubility (mg/mL) Run 2

GSK 3α, sequence (P49840 whole entry): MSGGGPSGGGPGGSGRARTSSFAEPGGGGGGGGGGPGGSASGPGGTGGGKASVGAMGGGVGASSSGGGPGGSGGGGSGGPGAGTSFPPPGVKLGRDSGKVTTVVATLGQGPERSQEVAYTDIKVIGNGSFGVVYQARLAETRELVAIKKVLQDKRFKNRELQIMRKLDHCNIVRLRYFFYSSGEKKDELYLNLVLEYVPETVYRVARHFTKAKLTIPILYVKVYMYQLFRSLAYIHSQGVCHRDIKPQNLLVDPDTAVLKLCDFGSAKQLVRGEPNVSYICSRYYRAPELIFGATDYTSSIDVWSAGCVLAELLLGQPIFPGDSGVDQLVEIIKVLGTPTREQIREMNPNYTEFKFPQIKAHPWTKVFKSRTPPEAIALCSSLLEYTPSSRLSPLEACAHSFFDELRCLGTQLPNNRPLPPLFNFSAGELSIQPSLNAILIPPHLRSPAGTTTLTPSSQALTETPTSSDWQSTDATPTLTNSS

Row | SMILES | IC50 (GSK 3α) [µM] | other results
1 | COc1cc(Nc2cc(Oc3ccc(NC(=O)Nc4cc(C(C)(C)C)cc(NS(C)(=O)=O)c4OC)c4ccccc34)ccn2)ccc1C(=O)NCCCN1CCN(C)CC1 [17(aa), 4-[[4-[[4-[[5-tert-butyl-3-(methanesulfonamido)-2-methoxy-phenyl]carbamoylamino]-1-naphthyl]oxy]-2-pyridyl]amino]-2-methoxy-N-[3-(4-methylpiperazin-1-yl)propyl]benzamide] | 2.93 | 
2 | COc1cc(Nc2cc(Oc3ccc(NC(=O)Nc4cc(C(C)(C)C)cc(NS(C)(=O)=O)c4OC)c4ccccc34)ccn2)ccc1C(=O)N(C)CCN1CCOCC1 [17(ab), 4-[[4-[[4-[[5-tert-butyl-3-(methanesulfonamido)-2-methoxy-phenyl]carbamoylamino]-1-naphthyl]oxy]-2-pyridyl]amino]-2-methoxy-N-methyl-N-(2-morpholinoethyl)benzamide] | 0.596 | 
3 | COc1cc(Nc2cc(Oc3ccc(NC(=O)Nc4cc(C(C)(C)C)cc(NS(C)(=O)=O)c4OC)c4ccccc34)ccn2)ccc1C(=O)NCCN(C)CCO [17(ac), 4-[[4-[[4-[[5-tert-butyl-3-(methanesulfonamido)-2-methoxy-phenyl]carbamoylamino]-1-naphthyl]oxy]-2-pyridyl]amino]-N-[2-[2-hydroxyethyl(methyl)amino]ethyl]-2-methoxy-benzamide] | 3.02 | 
4 | COc1cc(Nc2cc(Oc3ccc(NC(=O)Nc4cc(C(C)(C)C)cc(NS(C)(=O)=O)c4OC)c4ccccc34)ccn2)ccc1C(=O)NCCN1CCCOCC1 [17(ai), 4-[[4-[[4-[[5-tert-butyl-3-(methanesulfonamido)-2-methoxy-phenyl]carbamoylamino]-1-naphthyl]oxy]-2-pyridyl]amino]-2-methoxy-N-[2-(1,4-oxazepan-4-yl)ethyl]benzamide] | 4.48 | 
5 | COc1cc(Nc2cc(Oc3ccc(NC(=O)Nc4cc(C(C)(C)C)cc(NS(C)(=O)=O)c4OC)c4ccccc34)ccn2)ccc1C(=O)NCCCN1CCCOCC1 [17(aj), 4-[[4-[[4-[[5-tert-butyl-3-(methanesulfonamido)-2-methoxy-phenyl]carbamoylamino]-1-naphthyl]oxy]-2-pyridyl]amino]-2-methoxy-N-[3-(1,4-oxazepan-4-yl)propyl]benzamide] | 2.64 | 
6 | COc1cc(Nc2cc(Oc3ccc(NC(=O)Nc4cc(C(C)(C)C)cc(NS(C)(=O)=O)c4OC)c4ccccc34)ccn2)ccc1C(=O)NCCN1CCC(F)(F)CC1 [17(al), 4-[[4-[[4-[[5-tert-butyl-3-(methanesulfonamido)-2-methoxy-phenyl]carbamoylamino]-1-naphthyl]oxy]-2-pyridyl]amino]-N-[2-(4,4-difluoro-1-piperidyl)ethyl]-2-methoxy-benzamide] | 11.8 | 
7 | COc1cc(Nc2cc(Oc3ccc(NC(=O)Nc4cc(C(C)(C)C)cc(NS(C)(=O)=O)c4OC)c4ccccc34)ccn2)ccc1C(=O)NCCN1C[C@@H](C)O[C@@H](C)C1 [17(c), 4-[[4-[[4-[[5-tert-butyl-3-(methanesulfonamido)-2-methoxy-phenyl]carbamoylamino]-1-naphthyl]oxy]-2-pyridyl]amino]-N-[2-[(2S,6R)yl]ethyl]-2-methoxy-benzamide] | > 11.9 | 
8 | COc1cc(Nc2cc(Oc3ccc(NC(=O)Nc4cc(C(C)(C)C)cc(NS(C)(=O)=O)c4OC)c4ccccc34)ccn2)ccc1C(=O)NCCN1CCOC(C)(C)C1 [17(d), 4-[[4-[[4-[[5-tert-butyl-3-(methanesulfonamido)-2-methoxy-phenyl]carbamoylamino]-1-naphthyl]oxy]-2-pyridyl]amino]-N-[2-(2,2-dimethylmorpholin-4-yl)ethyl]-2-methoxy-benzamide] | > 11.9 | 
9 | COc1cc(Nc2cc(Oc3ccc(NC(=O)Nc4cc(C(C)(C)C)cc(NS(C)(=O)=O)c4OC)c4ccccc34)ccn2)ccc1C(=O)NCC(=O)N1CCOCC1 [17(e), 4-[[4-[[4-[[5-tert-butyl-3-(methanesulfonamido)-2-methoxy-phenyl]carbamoylamino]-1-naphthyl]oxy]-2-pyridyl]amino]-2-methoxy-N-(2-morpholino-2-oxo-ethyl)benzamide] | 7.42 | 
10 | COc1cc(Nc2cc(Oc3ccc(NC(=O)Nc4cc(C(C)(C)C)cc(NS(C)(=O)=O)c4OC)c4ccccc34)ccn2)ccc1C(=O)NCCN1CCCN(C)CC1 [17(f), 4-[[4-[[4-[[5-tert-butyl-3-(methanesulfonamido)-2-methoxy-phenyl]carbamoylamino]-1-naphthyl]oxy]-2-pyridyl]amino]-2-methoxy-N-[2-(4-methyl-1,4-diazepan-1-yl)ethyl]benzamide] | 1.09 | 
11 | COCCOCCOC[C@@H](C)NC(=O)c1ccc(Nc2cc(Oc3ccc(NC(=O)Nc4cc(C(C)(C)C)cc(NS(C)(=O)=O)c4OC)c4ccccc34)ccn2)cc1OC [17(g), 4-[[4-[[4-[[5-tert-butyl-3-(methanesulfonamido)-2-methoxy-phenyl]carbamoylamino]-1-naphthyl]oxy]-2-pyridyl]amino]-2-methoxy-N-[(1R)-2-[2-(2-methoxyethoxy)ethoxy]-1-methyl-ethyl]benzamide] | 4.1 | 
12 | COCCOCCOC[C@H](C)NC(=O)c1ccc(Nc2cc(Oc3ccc(NC(=O)Nc4cc(C(C)(C)C)cc(NS(C)(=O)=O)c4OC)c4ccccc34)ccn2)cc1OC [17(h), 4-[[4-[[4-[[5-tert-butyl-3-(methanesulfonamido)-2-methoxy-phenyl]carbamoylamino]-1-naphthyl]oxy]-2-pyridyl]amino]-2-methoxy-N-[(1S)-2-[2-(2-methoxyethoxy)ethoxy]-1-methyl-ethyl]benzamide] | 4.39 | 
13 | COc1cc(Nc2nccc(Oc3ccc(NC(=O)Nc4cc(C(C)(C)C)cc(NS(C)(=O)=O)c4OC)c4ccccc34)n2)ccc1C(=O)NCCN1CCOCC1 [17(i), 4-[[4-[[4-[[5-tert-butyl-3-(methanesulfonamido)-2-methoxy-phenyl]carbamoylamino]-1-naphthyl]oxy]pyrimidin-2-yl]amino]-2-methoxy-N-(2-morpholinoethyl)benzamide] | 0.594 | 
14 | COc1cc(Nc2cc(Oc3ccc(NC(=O)Nc4cc(C(C)(C)C)cc(NS(C)(=O)=O)c4OC)c4ccccc34)ccn2)ccc1C(=O)NCCN1CCOCC1(C)C [17(k), 4-[[4-[[4-[[5-tert-butyl-3-(methanesulfonamido)-2-methoxy-phenyl]carbamoylamino]-1-naphthyl]oxy]-2-pyridyl]amino]-N-[2-(3,3-dimethylmorpholin-4-yl)ethyl]-2-methoxy-benzamide] | > 11.9 | 
15 | COc1cc(Nc2cc(Oc3ccc(NC(=O)Nc4cc(C(C)(C)C)cc(NS(C)(=O)=O)c4OC)c4ccccc34)ccn2)ccc1C(=O)NCC(CO)(CO)CO [Example 38, 4-((4-((4-(3-(5-(tert-Butyl)-2-methoxy-3-(methylsulfonamido)phenyl)ureido)naphthalen-1-yl)oxy)pyridin-2-yl)amino)-N-(3-hydroxy-2,2-bis(hydroxymethyl)propyl)-2-methoxybenzamide] |  | % Viability at 1 μg/mL (Jurkat cells; 1 μg/mL): 90.0%; % Viability at 20 μg/mL (Jurkat cells): 6.0%; solubility thermodynamic at 24 h [1, 2]: 14 µg/mL (≈ 17.1 µM); solubility thermodynamic at 24 h [1, 3]: 12 µg/mL (≈ 14.7 µM)
16 | COc1cc(Nc2cc(Oc3ccc(NC(=O)Nc4cc(C(C)(C)C)cc(NS(C)(=O)=O)c4OC)c4ccccc34)ccn2)cc(OC)c1C(=O)NCCN(C)C [Example 39, 4-((4-((4-(3-(5-(tert-Butyl)-2-methoxy-3-(methylsulfonamido)phenyl)ureido)naphthalen-1-yl)oxy)pyridin-2-yl)amino)-N-(2-(dimethylamino)ethyl)-2,6-dimethoxybenzamide] |  | % Viability at 20 μg/mL (Jurkat cells): 1.5%; solubility thermodynamic at 24 h [1, 2]: 222 µg/mL (≈ 278 µM); solubility thermodynamic at 24 h [1, 3]: 247 µg/mL (≈ 309 µM); solubility thermodynamic at 24 h ([1]; pH 6.5 FaSSCoF Solubility (mg/mL) Run 3): 73 µg/mL (≈ 91.3 µM); solubility thermodynamic at 24 h ([1]; pH 6.5 FaSSCoF Solubility (mg/mL) Run 4): 97 µg/mL (≈ 121 µM)
17 | COc1cc(Nc2cc(Oc3ccc(NC(=O)Nc4cc(C(C)(C)C)cc(NS(C)(=O)=O)c4OC)c4ccccc34)ccn2)ccc1S(=O)(=O)CC(CO)(CO)CO [Example 45, N-(5-(tert-Butyl)-3-(3-(4-((2-((4-((3-hydroxy-2,2-bis(hydroxymethyl)propyl)sulfonyl)-3-methoxyphenyl)amino)pyridin-4-yl)oxy)naphthalen-1-yl)ureido)-2-methoxyphenyl)-methanesulfonamide] |  | % Viability at 20 μg/mL (Jurkat cells): 9.8%; solubility thermodynamic at 24 h [1, 2]: 5 µg/mL (≈ 5.97 µM); solubility thermodynamic at 24 h [1, 3]: 5 µg/mL (≈ 5.97 µM)

Source: patent US9751837B2, “Kinase inhibitors” (RESPIVERT LIMITED, priority 2014, dated 2017)
